Measured values published in PubChem BioAssay AID1963837 (Molecular Pharmacology Branch, DTP, NCI, 2024).

System: 843126-344-R-J1-PDC complex spheroid viability
Assay: Anticancer human tumor 843126-344-R-J1-PDC patient-derived melanoma cell line growth inhibition [POLQ]
Details: for IC50: curve of first compound; for viability, T/C: stronger effect = lower value
In short: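 Patient-derived tumour cells were co-cultured with HUVEC and mesenchymal stem cells as multicellular spheroids at 37 °C. They were treated with POLQ inhibitors (novobiocin, ART-558, RP6685) alone or combined with other agents. Top concentrations were at or near clinical Cmax (otherwise 10 microM; SN-38 at 1 microM), decreasing in half-log steps.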

[1] = second compound 0.0316 µM, first compound 0.0316 µM
[2] = second compound 0.0316 µM, first compound 0.1 µM
[3] = second compound 0.0316 µM, first compound 0.316 µM
[4] = second compound 0.0316 µM, first compound 1 µM
[5] = second compound 0.0316 µM, first compound 3.16 µM
[6] = second compound 0.0316 µM, first compound 10 µM
[7] = second compound 0.1 µM, first compound 0.0316 µM
[8] = second compound 0.1 µM, first compound 0.1 µM
[9] = second compound 0.1 µM, first compound 0.316 µM
[10] = second compound 0.1 µM, first compound 1 µM
[11] = second compound 0.1 µM, first compound 3.16 µM
[12] = second compound 0.1 µM, first compound 10 µM
[13] = second compound 0.316 µM, first compound 0.0316 µM
[14] = second compound 0.316 µM, first compound 0.1 µM
[15] = second compound 0.316 µM, first compound 0.316 µM
[16] = second compound 0.316 µM, first compound 1 µM
[17] = second compound 0.316 µM, first compound 3.16 µM
[18] = second compound 0.316 µM, first compound 10 µM
[19] = second compound 1 µM, first compound 0.0316 µM
[20] = second compound 1 µM, first compound 0.1 µM
[21] = second compound 1 µM, first compound 0.316 µM
[22] = second compound 1 µM, first compound 1 µM
[23] = second compound 1 µM, first compound 3.16 µM
[24] = second compound 1 µM, first compound 10 µM
[25] = second compound 3.16 µM, first compound 0.0316 µM
[26] = second compound 3.16 µM, first compound 0.1 µM
[27] = second compound 3.16 µM, first compound 0.316 µM
[28] = second compound 3.16 µM, first compound 1 µM
[29] = second compound 3.16 µM, first compound 3.16 µM
[30] = second compound 3.16 µM, first compound 10 µM
[31] = second compound 10 µM, first compound 0.0316 µM
[32] = second compound 10 µM, first compound 0.1 µM
[33] = second compound 10 µM, first compound 0.316 µM
[34] = second compound 10 µM, first compound 1 µM
[35] = second compound 10 µM, first compound 3.16 µM
[36] = second compound 10 µM, first compound 10 µM
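For viability, T/C in this document: spheroids exposed to drugs for seven days before readout.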

SMILES: COc1cccc2c1C(=O)c1c(O)c3c(c(O)c1C2=O)CC(O)(C(=O)CO)CC3OC1CC(N)C(O)C(C)O1 (centres undefined) + COC1C(OC(N)=O)C(O)C(Oc2ccc3c(O)c(NC(=O)c4ccc(O)c(CC=C(C)C)c4)c(=O)oc3c2C)OC1(C)C
- IC50 (second compound 0.0316 µM): 332 nM
- IC50 (second compound 0.1 µM): 320 nM
- IC50 (second compound 0.316 µM): 295 nM
- IC50 (second compound 1 µM): 328 nM
- IC50 (second compound 3.16 µM): 404 nM
- IC50 (second compound 10 µM): 303 nM
- viability, T/C [1]: 80%
- viability, T/C [2]: 81.3%
- viability, T/C [3]: 50.5%
- viability, T/C [4]: 14.6%
- viability, T/C [5]: 4.71%
- viability, T/C [6]: 3.86%
- viability, T/C [7]: 84%
- viability, T/C [8]: 85%
- viability, T/C [9]: 49.2%
- viability, T/C [10]: 13.5%
- viability, T/C [11]: 3.97%
- viability, T/C [12]: 3.88%
- viability, T/C [13]: 103%
- viability, T/C [14]: 71.8%
- viability, T/C [15]: 58%
- viability, T/C [16]: 14.1%
- viability, T/C [17]: 4.21%
- viability, T/C [18]: 4.82%
- viability, T/C [19]: 98.3%
- viability, T/C [20]: 77.2%
- viability, T/C [21]: 56.2%
- viability, T/C [22]: 13%
- viability, T/C [23]: 4.55%
- viability, T/C [24]: 3.9%
- viability, T/C [25]: 87.6%
- viability, T/C [26]: 77%
- viability, T/C [27]: 60.2%
- viability, T/C [28]: 16%
- viability, T/C [29]: 5.73%
- viability, T/C [30]: 4.31%
- viability, T/C [31]: 88.6%
- viability, T/C [32]: 77.6%
- viability, T/C [33]: 49.9%
- viability, T/C [34]: 15%
- viability, T/C [35]: 4.64%
- viability, T/C [36]: 3.44%

SMILES: CC1COCCN1c1cc(C2(S(C)(=N)=O)CC2)nc(-c2ccnc3[nH]ccc23)n1 (centres undefined) + Cc1cccc(N(C)C(=O)C2C(O)CCN2c2nc(C)cc(C(F)(F)F)c2C#N)c1
- IC50 (second compound 0.0316 µM): > 10000 nM
- IC50 (second compound 0.1 µM): > 10000 nM
- IC50 (second compound 0.316 µM): > 10000 nM
- IC50 (second compound 1 µM): > 10000 nM
- IC50 (second compound 3.16 µM): > 10000 nM
- IC50 (second compound 10 µM): > 10000 nM
- viability, T/C [1]: 102%
- viability, T/C [2]: 80.2%
- viability, T/C [3]: 74.1%
- viability, T/C [4]: 84.5%
- viability, T/C [5]: 76.2%
- viability, T/C [6]: 51.1%
- viability, T/C [7]: 91.3%
- viability, T/C [8]: 87.6%
- viability, T/C [9]: 97.2%
- viability, T/C [10]: 81.5%
- viability, T/C [11]: 79.3%
- viability, T/C [12]: 55.8%
- viability, T/C [13]: 81.6%
- viability, T/C [14]: 107%
- viability, T/C [15]: 76.6%
- viability, T/C [16]: 80.3%
- viability, T/C [17]: 66.6%
- viability, T/C [18]: 58.5%
- viability, T/C [19]: 94.1%
- viability, T/C [20]: 86.7%
- viability, T/C [21]: 90.6%
- viability, T/C [22]: 82.4%
- viability, T/C [23]: 65.8%
- viability, T/C [24]: 57.6%
- viability, T/C [25]: 93.9%
- viability, T/C [26]: 95.1%
- viability, T/C [27]: 111%
- viability, T/C [28]: 83.7%
- viability, T/C [29]: 78.4%
- viability, T/C [30]: 54.5%
- viability, T/C [31]: 81.1%
- viability, T/C [32]: 70%
- viability, T/C [33]: 91%
- viability, T/C [34]: 83.3%
- viability, T/C [35]: 72.2%
- viability, T/C [36]: 55.3%
